Laboratory results from US9770026B2, “Substituted pyrimidine compound and uses thereof” (Shenyang Sinochem Agrochemicals R&D Co., Ltd., priority 2012, dated 2017).

Tests used:
[1] = system: Diamond back moth; test: insecticidal activity against diamond back moth, airbrush spray; format: in vivo; details: 72 h; for pest or weed control at 10 µg/mL: 10 mg/L; for pest or weed control at 100 µg/mL: 100 mg/L; for pest or weed control at 600 µg/mL: 600 mg/L
Outline: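 Airbrush leaf-disc spray test: both faces of 2 cm cabbage discs received 0.5 ml of test solution at 0.7 kg/cm^2. Solutions were made in acetone:methanol (1:1) and brought to concentration with 0.1% Tween 80 in water. Ten second-instar larvae per disc, triplicates, were held at 25° C and 60˜70% R.H., with mortality recorded at 72 hrs.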

[2] = system: corn rust; test: protectant activity in vivo against corn rust; details: Zea mays, 168 h; for pest or weed control at 6.25 µg/mL: read-out: control effect against corn rust (%), 6.25 mg/L; for pest or weed control at 6.25 µg/mL / pest or weed control at 25 µg/mL / pest or weed control at 100 µg/mL / pest or weed control at 400 µg/mL: protectant activity; for pest or weed control at 25 µg/mL: read-out: control effect against corn rust (%), 25 mg/L; for pest or weed control at 100 µg/mL: read-out: control effect against corn rust (%), 100 mg/L; for pest or weed control at 400 µg/mL: read-out: control effect against corn rust (%), 400 mg/L
[3] = system: armyworm; test: bioactivity test against armyworm, airbrush spray; format: in vivo; details: 72 h; for pest or weed control at 600 µg/mL: 600 mg/L, read-out: Insecticidal activity against armyworm (%)
[4] = system: wheat powdery mildew; test: protectant activity in vivo against wheat powdery mildew; details: Triticum aestivum, 168 h; for pest or weed control at 6.25 µg/mL: read-out: control effect against wheat powdery mildew (%), 6.25 mg/L; for pest or weed control at 6.25 µg/mL / pest or weed control at 25 µg/mL / pest or weed control at 100 µg/mL / pest or weed control at 400 µg/mL: protectant activity; for pest or weed control at 25 µg/mL: read-out: control effect against wheat powdery mildew (%), 25 mg/L; for pest or weed control at 100 µg/mL: read-out: control effect against wheat powdery mildew (%), 100 mg/L; for pest or weed control at 400 µg/mL: read-out: control effect against wheat powdery mildew (%), 400 mg/L
[5] = system: cucumber downy mildew; test: protectant activity in vivo against cucumber downy mildew; details: Cucumis sativus, 168 h; for pest or weed control at 25 µg/mL: read-out: control effect against cucumber downy mildew (%), 25 mg/L; for pest or weed control at 25 µg/mL / pest or weed control at 50 µg/mL / pest or weed control at 100 µg/mL / pest or weed control at 400 µg/mL: protectant activity; for pest or weed control at 50 µg/mL: read-out: control effect against cucumber downy mildew (%), 50 mg/L; for pest or weed control at 100 µg/mL: read-out: control effect against cucumber downy mildew (%), 100 mg/L; for pest or weed control at 400 µg/mL: read-out: control effect against cucumber downy mildew (%), 400 mg/L
[6] = system: Green peach aphids (Myzus Persicae Sulzer); test: bioactivity test against green peach aphid, airbrush foliar spray; format: in vivo; details: for pest or weed control at 10 µg/mL: 10 mg/L; for pest or weed control at 100 µg/mL: 100 mg/L; for pest or weed control at 600 µg/mL: 600 mg/L
Outline: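 Aphids (15-30 per cabbage leaf disc) on moist filter paper were airbrush-sprayed at 10 psi, 0.5 mL, with compound from acetone:methanol (1:1) diluted in water with 0.1% tween 80. Held at 25±1 C, 60±5% RH; survivors counted after 48 hrs to give death rates.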

[7] = system: carmine spider mite; test: bioactivity test against carmine spider mite, airbrush spray; format: in vivo; details: for pest or weed control at 10 µg/mL: 10 mg/L; for pest or weed control at 10 µg/mL / pest or weed control at 100 µg/mL / pest or weed control at 600 µg/mL: contrastive test, read-out: Insecticidal activity against carmine spider mite (% ); for pest or weed control at 100 µg/mL: 100 mg/L; for pest or weed control at 600 µg/mL: 600 mg/L
Outline: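 Broadbean seedlings infested with adult mites were sprayed with compound (acetone/methanol stock diluted in 0.1% Tween 80 water) by airbrush at 0.7 kg/cm^2, 0.5 ml. Three replicates were run. Mortality was scored after 72 hrs.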

[8] = system: rice blast; test: microbe, parasite or virus in culture; format: cell-based; details: Pyricularia oryzae; for inhibition at 25 ppm: read-out: inhibition rate against rice blast, 25 ppm, in vitro; for inhibition at 8.3 ppm: read-out: inhibition rate against rice blast, 8.3 ppm, in vitro
[9] = system: cucumber gray mold; test: fungicidal activity in vitro (inhibition rate) against cucumber gray mold; format: cell-based; details: 25 ppm, in vitro; read-out: inhibition rate against cucumber gray mold
[10] = Myzus persicae, foliar, 48 h, contrastive test, read-out: Insecticidal activity against peach aphid (%)

## CCc1ncnc(OC(CC)c2ccc(Oc3ccc(C(F)(F)F)cn3)cc2)c1Cl (stereo not drawn) [CK15, reference compound]
[1]
  pest or weed control at 10 µg/mL: 0%
  pest or weed control at 100 µg/mL: 15%
  pest or weed control at 600 µg/mL: 17%
[2]
  pest or weed control at 6.25 µg/mL: 0%
  pest or weed control at 25 µg/mL: 30%
  pest or weed control at 100 µg/mL: 85%
  pest or weed control at 400 µg/mL: 95%
[3]
  pest or weed control at 600 µg/mL: 0%
[4]
  pest or weed control at 6.25 µg/mL: 0%
  pest or weed control at 25 µg/mL: 10%
  pest or weed control at 100 µg/mL: 85%
  pest or weed control at 400 µg/mL: 95%
[5]
  pest or weed control at 25 µg/mL: 0%
  pest or weed control at 50 µg/mL: 0%
  pest or weed control at 100 µg/mL: 15%
  pest or weed control at 400 µg/mL: 95%
[6]; [10]
  pest or weed control at 10 µg/mL: 0%
  pest or weed control at 100 µg/mL: 40%
  pest or weed control at 600 µg/mL: 69%
[7]; Tetranychus cinnabarinus, 72 h
  pest or weed control at 10 µg/mL: 0%
  pest or weed control at 100 µg/mL: 0%
  pest or weed control at 600 µg/mL: 59%
[8]
  inhibition at 25 ppm: 0%
[9]
  inhibition at 25 ppm: 0%

## CCC(Nc1nc(Cl)nc(C(=O)OC)c1Cl)c1ccc(Oc2ncc(C(F)(F)F)cc2Cl)cc1 (stereo not drawn) [CK35, reference compound]
[1]
  pest or weed control at 600 µg/mL: 0%
[2]
  pest or weed control at 400 µg/mL: 0%
[3]
  pest or weed control at 600 µg/mL: 0%
[4]
  pest or weed control at 400 µg/mL: 0%
[5]
  pest or weed control at 400 µg/mL: 60%
[6]; [10]
  pest or weed control at 600 µg/mL: 0%
[7]; Tetranychus cinnabarinus, 72 h
  pest or weed control at 600 µg/mL: 0%
[8]
  inhibition at 25 ppm: < 50%
[9]
  inhibition at 25 ppm: 0%

## CCc1ncnc(NCCc2ccc(Oc3ccc(C(F)(F)F)cc3)cc2)c1Cl [II-347]
[1]
  pest or weed control at 10 µg/mL: 65%
  pest or weed control at 100 µg/mL: 70%
  pest or weed control at 600 µg/mL: 100%
[1]; 600 ppm, mortality after 72 hrs, read-out: control (test results against diamond back moth)
  pest or weed control at 600 ppm: 100%
[2]; read-out: protectant activity against corn rust in vivo, 6.25 ppm
  pest or weed control at 6.25 ppm: 80 to 99%
[2]; read-out: protectant activity against corn rust in vivo, 25 ppm
  pest or weed control at 25 ppm: 80 to 99%
[2]; read-out: protectant activity against corn rust in vivo, 100 ppm
  pest or weed control at 100 ppm: 100%
[2]; read-out: protectant activity against corn rust in vivo, 400 ppm
  pest or weed control at 400 ppm: 100%
[3]; 600 ppm, mortality after 72 h
  pest or weed control at 600 ppm: 100%
[4]; read-out: protectant activity against wheat powdery mildew in vivo, 25 ppm
  pest or weed control at 25 ppm: 100%
[4]; read-out: protectant activity against wheat powdery mildew in vivo, 100 ppm
  pest or weed control at 100 ppm: 100%
[4]; read-out: protectant activity against wheat powdery mildew in vivo, 400 ppm
  pest or weed control at 400 ppm: 100%
[5]; read-out: protectant activity against cucumber downy mildew in vivo, 100 ppm
  pest or weed control at 100 ppm: 80 to 99%
[5]; read-out: protectant activity against cucumber downy mildew in vivo, 400 ppm
  pest or weed control at 400 ppm: 100%
[6]; 2.5 ppm, death rate after 48 hrs
  control (test results against green peach aphid): 100%
[6]; Myzus persicae, foliar, 48 h, 1.25 mg/L, contrastive test, read-out: Insecticidal activity against peach aphid (%)
  pest or weed control at 1.25 µg/mL: 81%
[6]; Myzus persicae, foliar, 48 h, 2.5 mg/L, contrastive test, read-out: Insecticidal activity against peach aphid (%)
  pest or weed control at 2.5 µg/mL: 100%
[6]; Myzus persicae, foliar, 48 h, 5 mg/L, contrastive test, read-out: Insecticidal activity against peach aphid (%)
  pest or weed control at 5 µg/mL: 100%
[6]; [10]
  pest or weed control at 10 µg/mL: 100%
  pest or weed control at 100 µg/mL: 100%
  pest or weed control at 600 µg/mL: 100%
[6]; Myzus persicae, foliar, 48 h, 5 ppm, death rate after 48 hrs
  pest or weed control at 5 ppm: 100%
[6]; Myzus persicae, foliar, 48 h, 10 ppm, death rate after 48 hrs
  pest or weed control at 10 ppm: 100%
[6]; Myzus persicae, foliar, 48 h, 100 ppm, death rate after 48 hrs
  pest or weed control at 100 ppm: 100%
[6]; Myzus persicae, foliar, 48 h, 600 ppm, death rate after 48 hrs
  pest or weed control at 600 ppm: 100%
[7]; 2.5 mg/L
  Insecticidal activity against carmine spider mite (% ): 75%
[7]; 5 mg/L
  Insecticidal activity against carmine spider mite (% ): 90%
[7]; Tetranychus cinnabarinus, 72 h
  pest or weed control at 10 µg/mL: 100%
  pest or weed control at 100 µg/mL: 100%
  pest or weed control at 600 µg/mL: 100%
[7]; Tetranychus cinnabarinus, 72 h, 10 ppm, mortality after 72 hrs
  pest or weed control at 10 ppm: 100%
[7]; Tetranychus cinnabarinus, 72 h, 100 ppm, mortality after 72 hrs
  pest or weed control at 100 ppm: 100%
[7]; Tetranychus cinnabarinus, 72 h, 600 ppm, mortality after 72 hrs
  pest or weed control at 600 ppm: 100%
[8]
  inhibition at 25 ppm: 80 to 99%
[9]
  inhibition at 25 ppm: 80 to 99%

## CCc1ncnc(OCCc2ccc(OCc3ccccc3)cc2)c1Cl [CK14, reference compound]
[1]
  pest or weed control at 10 µg/mL: 0%
  pest or weed control at 100 µg/mL: 10%
  pest or weed control at 600 µg/mL: 67%
[2]
  pest or weed control at 6.25 µg/mL: 0%
  pest or weed control at 25 µg/mL: 0%
  pest or weed control at 100 µg/mL: 20%
  pest or weed control at 400 µg/mL: 100%
[3]
  pest or weed control at 600 µg/mL: 0%
[4]
  pest or weed control at 6.25 µg/mL: 0%
  pest or weed control at 25 µg/mL: 0%
  pest or weed control at 100 µg/mL: 10%
  pest or weed control at 400 µg/mL: 85%
[5]
  pest or weed control at 25 µg/mL: 0%
  pest or weed control at 50 µg/mL: 0%
  pest or weed control at 100 µg/mL: 40%
  pest or weed control at 400 µg/mL: 98%
[6]; [10]
  pest or weed control at 10 µg/mL: 0%
  pest or weed control at 100 µg/mL: 70%
  pest or weed control at 600 µg/mL: 100%
[7]; Tetranychus cinnabarinus, 72 h
  pest or weed control at 10 µg/mL: 6%
  pest or weed control at 100 µg/mL: 33%
  pest or weed control at 600 µg/mL: 100%
[8]
  inhibition at 8.3 ppm: 0%
[9]
  inhibition at 25 ppm: 0%

## Cc1ncnc(NC(C)c2cccc3ccccc23)c1Cl (stereo not drawn) [CK17, reference compound]
[1]
  pest or weed control at 600 µg/mL: 0%
[2]
  pest or weed control at 6.25 µg/mL: 0%
  pest or weed control at 25 µg/mL: 0%
  pest or weed control at 100 µg/mL: 0%
  pest or weed control at 400 µg/mL: 100%
[3]
  pest or weed control at 600 µg/mL: 0%
[4]
  pest or weed control at 6.25 µg/mL: 50%
  pest or weed control at 25 µg/mL: 70%
  pest or weed control at 100 µg/mL: 75%
  pest or weed control at 400 µg/mL: 100%
[5]
  pest or weed control at 25 µg/mL: 0%
  pest or weed control at 50 µg/mL: 10%
  pest or weed control at 100 µg/mL: 40%
  pest or weed control at 400 µg/mL: 100%
[6]; [10]
  pest or weed control at 600 µg/mL: 0%
[7]; Tetranychus cinnabarinus, 72 h
  pest or weed control at 600 µg/mL: 40%
[8]; read-out: inhibition rate against rice blast, 2.8 ppm, in vitro
  inhibition at 2.8 ppm: 0%
[8]
  inhibition at 8.3 ppm: 50%
[9]
  inhibition at 25 ppm: 0%
